Values after ≈ are worked out from the molar mass of the structure shown. Active and inactive are the calls of the source. The rule behind the calls is not given here.
Key:
Candida albicans [1] = test: Antifungal activity against Candida albicans SC5314 assessed as inhibition of fungal growth incubated for 48 hrs by microbroth dilution method; type: functional
Nakaseomyces glabratus [2] = test: Antifungal activity against Candida glabrata 537 assessed as inhibition of fungal growth incubated for 48 hrs by microbroth dilution method; type: functional
Candida parapsilosis [3] = test: Antifungal activity against Candida parapsilosis 22019 assessed as inhibition of fungal growth incubated for 48 hrs by microbroth dilution method; type: functional; conditions: Lodderomyces parapsilosis
Nakaseomyces glabratus [4] = test: Potency index, ratio of fluconazole MIC to test compound MIC for antifungal activity against Candida glabrata 537 assessed as inhibition of fungal growth incubated for 48 hrs by microbroth dilution method; type: functional
[Candida] auris [5] = Antifungal activity against fluconazole-resistant Candida auris 918 assessed as inhibition of fungal growth incubated for 48 hrs by microbroth dilution method; type: functional; conditions: Candidozyma auris
Candida albicans [6] = test: Antifungal activity against Candida albicans SC5314 assessed as inhibition of fungal growth incubated for 48 hrs by spot assay; type: functional, organism-based; conditions: dose 0.5-1 µg/ml
Candida albicans [7] = test: Antifungal activity against Candida albicans 904 assessed as inhibition of fungal growth incubated for 48 hrs by spot assay; type: functional, organism-based; conditions: dose 0.5-1 µg/ml
Candida albicans [8] = test: Antifungal activity against Candida albicans 904 assessed as reduction in fungal viability incubated for 48 hrs by spot assay; type: functional, organism-based; conditions: dose 0.5-1 µg/ml
Candida albicans [9] = test: Antifungal activity against Candida albicans SC5314 assessed as reduction in fungal viability incubated for 48 hrs by spot assay; type: functional, organism-based; conditions: dose 0.5-1 µg/ml
Candida parapsilosis [10] = test: Antifungal activity against Candida parapsilosis 22019 assessed as reduction in fungal viability incubated for 48 hrs by spot assay; type: functional, organism-based; conditions: dose 0.5-1 µg/ml
Candida parapsilosis [11] = test: Antifungal activity against Candida parapsilosis 22019 assessed as inhibition of fungal growth incubated for 48 hrs by spot assay; type: functional, organism-based; conditions: dose 0.5-1 µg/ml
Nakaseomyces glabratus [12] = test: Antifungal activity against Candida glabrata 537 assessed as inhibition of fungal growth incubated for 48 hrs by spot assay; type: functional, organism-based; conditions: dose 0.5-1 µg/ml
Nakaseomyces glabratus [13] = test: Antifungal activity against Candida glabrata 537 assessed as reduction in fungal viability incubated for 48 hrs by spot assay; type: functional, organism-based; conditions: dose 0.5-1 µg/ml
[Candida] auris [14] = Antifungal activity against Candida auris 891 assessed as inhibition of fungal growth incubated for 48 hrs by spot assay; type: functional, organism-based; conditions: Candidozyma auris, dose 0.5-1 µg/ml
[Candida] auris [15] = Antifungal activity against Candida auris 891 assessed as reduction in fungal viability incubated for 48 hrs by spot assay; type: functional, organism-based; conditions: Candidozyma auris, dose 0.5-1 µg/ml
Cryptococcus neoformans = test: Antifungal activity against Cryptococcus neoformans 32,609 assessed as reduction in fungal growth and viability at 0.5 to 1 ug/ml incubated for 48 hrs by spot assay; type: functional, organism-based; conditions: dose 0.5-1 µg/ml
Candida albicans [16] = test: Antifungal activity against Candida albicans SC5314 assessed as inhibition of fungal growth at 16 ug/ml measured after 24 hrs by optical density based method; type: functional
Candida albicans [17] = test: Antifungal activity against Candida albicans assessed as reduction in hyphal length at 16 ug/ml; type: functional, organism-based; conditions: dose 16.0 µg/ml
Candida albicans [18] = test: Antifungal activity against Candida albicans assessed as increase in pseudohyphae at 16 ug/ml; type: functional, organism-based; conditions: dose 16.0 µg/ml
[19] = target: T1, Lanosterol 14-alpha demethylase (Candida albicans (strain SC5314 / ATCC MYA-2876) (Yeast), UniProt P10613); test: Inhibition of Lanosterol 14-alpha demethylase in Candida albicans SC5314 assessed as reduction in ergosterol level at 8 ug/ml incubated for 8 hrs by GC-MS analysis relative to control; conditions: at 8 µg/mL
T1 sequence (P10613 whole entry): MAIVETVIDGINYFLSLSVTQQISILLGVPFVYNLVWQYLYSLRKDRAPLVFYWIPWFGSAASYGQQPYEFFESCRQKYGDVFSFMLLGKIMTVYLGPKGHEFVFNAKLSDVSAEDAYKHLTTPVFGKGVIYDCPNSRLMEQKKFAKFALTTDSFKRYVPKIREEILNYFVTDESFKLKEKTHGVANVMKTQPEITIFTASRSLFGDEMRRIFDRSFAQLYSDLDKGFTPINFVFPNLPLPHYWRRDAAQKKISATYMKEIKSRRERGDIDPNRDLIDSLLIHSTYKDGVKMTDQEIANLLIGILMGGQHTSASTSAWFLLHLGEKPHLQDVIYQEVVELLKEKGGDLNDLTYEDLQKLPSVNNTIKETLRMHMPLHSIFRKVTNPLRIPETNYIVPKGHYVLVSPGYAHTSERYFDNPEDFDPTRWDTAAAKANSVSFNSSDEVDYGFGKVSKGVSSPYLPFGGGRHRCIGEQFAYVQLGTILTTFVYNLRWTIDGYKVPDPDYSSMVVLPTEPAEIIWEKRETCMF

[20] = target: T1, Lanosterol 14-alpha demethylase; test: Inhibition of Lanosterol 14-alpha demethylase in Candida albicans SC5314 assessed as increase in lanosterol level at 8 ug/ml incubated for 8 hrs by GC-MS analysis (reference value: 2.79%); set-up: scale not given: the % may be the effect or the level left; conditions: at 8 µg/mL
[21] = target: T1, Lanosterol 14-alpha demethylase; test: Inhibition of Lanosterol 14-alpha demethylase in Candida albicans SC5314 assessed as increase in eburicol level at 8 ug/ml incubated for 8 hrs by GC-MS analysis relative to control; set-up: scale not given: the % may be the effect or the level left; conditions: at 8 µg/mL
[22] = target: T1, Lanosterol 14-alpha demethylase; test: Inhibition of Lanosterol 14-alpha demethylase in Candida albicans SC5314 assessed as increase in obtusifoliol level at 8 ug/ml incubated for 8 hrs by GC-MS analysis relative to control; set-up: scale not given: the % may be the effect or the level left; conditions: at 8 µg/mL
[23] = target: T1, Lanosterol 14-alpha demethylase; test: Inhibition of Lanosterol 14-alpha demethylase in Candida albicans SC5314 assessed as increase in 14alpha-methylfecosterol level at 8 ug/ml incubated for 8 hrs by GC-MS analysis relative to control; set-up: scale not given: the % may be the effect or the level left; conditions: at 8 µg/mL
Cytochrome P450 2C9 = Cytochrome P450 2C9 (Homo sapiens, UniProt P11712); test: Inhibition of human CYP2C9 using diclofenac as substrate prewarmed for 10 mins followed by NADPH addition and measured after 10 mins by LC-MS/MS analysis; type: ADME
Chain of Cytochrome P450 2C9 (P11712 whole entry): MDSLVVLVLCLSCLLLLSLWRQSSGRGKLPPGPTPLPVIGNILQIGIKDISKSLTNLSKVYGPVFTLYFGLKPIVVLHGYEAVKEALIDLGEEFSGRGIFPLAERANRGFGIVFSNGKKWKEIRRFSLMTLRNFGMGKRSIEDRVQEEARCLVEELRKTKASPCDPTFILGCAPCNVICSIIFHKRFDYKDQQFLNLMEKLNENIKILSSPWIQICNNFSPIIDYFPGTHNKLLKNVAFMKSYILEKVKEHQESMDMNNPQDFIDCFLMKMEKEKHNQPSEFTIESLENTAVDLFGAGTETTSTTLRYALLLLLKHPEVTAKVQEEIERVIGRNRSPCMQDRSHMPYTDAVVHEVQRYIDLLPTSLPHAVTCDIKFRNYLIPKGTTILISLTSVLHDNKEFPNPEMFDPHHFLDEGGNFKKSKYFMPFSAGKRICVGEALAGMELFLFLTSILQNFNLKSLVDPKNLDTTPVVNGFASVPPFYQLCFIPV

Cytochrome P450 2C19 = Cytochrome P450 2C19 (Homo sapiens, UniProt P33261); test: Inhibition of human CYP2C19 using mephenytoin as substrate prewarmed for 10 mins followed by NADPH addition and measured after 10 mins by LC-MS/MS analysis; type: ADME
Chain of Cytochrome P450 2C19 (P33261 whole entry): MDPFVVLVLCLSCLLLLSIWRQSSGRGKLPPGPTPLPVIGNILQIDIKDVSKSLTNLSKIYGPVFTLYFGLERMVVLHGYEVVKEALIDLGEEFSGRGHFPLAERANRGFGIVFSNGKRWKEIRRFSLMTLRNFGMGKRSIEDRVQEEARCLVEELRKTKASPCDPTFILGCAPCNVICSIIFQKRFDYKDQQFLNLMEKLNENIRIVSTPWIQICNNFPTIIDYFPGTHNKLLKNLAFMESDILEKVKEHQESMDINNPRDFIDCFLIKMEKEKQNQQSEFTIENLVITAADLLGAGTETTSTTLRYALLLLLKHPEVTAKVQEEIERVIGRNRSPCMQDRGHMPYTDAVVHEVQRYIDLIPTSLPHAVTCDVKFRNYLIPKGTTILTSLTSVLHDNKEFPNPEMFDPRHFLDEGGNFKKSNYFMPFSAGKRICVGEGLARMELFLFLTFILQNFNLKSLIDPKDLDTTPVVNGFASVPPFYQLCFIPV

Cytochrome P450 2D6 = Cytochrome P450 2D6 (Homo sapiens, UniProt P10635); test: Inhibition of human CYP2D6 using dextromethorphan as substrate prewarmed for 10 mins followed by NADPH addition and measured after 10 mins by LC-MS/MS analysis; type: ADME
Chain of Cytochrome P450 2D6 (P10635 whole entry): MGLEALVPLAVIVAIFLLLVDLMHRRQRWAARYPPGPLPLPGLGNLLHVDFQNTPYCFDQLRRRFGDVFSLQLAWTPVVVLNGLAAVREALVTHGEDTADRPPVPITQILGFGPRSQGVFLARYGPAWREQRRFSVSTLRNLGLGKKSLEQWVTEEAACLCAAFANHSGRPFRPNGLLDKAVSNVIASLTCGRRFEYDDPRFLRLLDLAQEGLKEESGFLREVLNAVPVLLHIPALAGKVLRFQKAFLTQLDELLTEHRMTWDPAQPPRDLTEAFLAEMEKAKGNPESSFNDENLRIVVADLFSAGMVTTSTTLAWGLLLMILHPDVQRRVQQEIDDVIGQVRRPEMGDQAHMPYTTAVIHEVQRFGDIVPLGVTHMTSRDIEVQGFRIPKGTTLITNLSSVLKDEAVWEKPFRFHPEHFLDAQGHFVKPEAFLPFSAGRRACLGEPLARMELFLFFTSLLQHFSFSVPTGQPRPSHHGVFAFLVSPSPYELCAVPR

[24] = Metabolic stability in human liver microsomes assessed as intrinsic clearance at 1 uM preincubated for 10 mins followed by NADPH addition and measured upto 60 mins by LC-MS/MS analysis; type: ADME, Microsome; conditions: time < 70 min, read-out: CLH
Candida albicans [25] = test: Antifungal activity against Candida albicans SC5314 infected in Galleria mellonella larvae assessed as delay in time of larval death at 8 mg/kg measured after 10 days post inoculation; type: functional, organism-based; conditions: time 10.0 day
Candida albicans [26] = test: Antifungal activity against Candida albicans SC5314 infected in Galleria mellonella larvae assessed as median survival time at 8 mg/kg measured after 10 days post inoculation; type: functional; conditions: time 10 day
Candida albicans [27] = test: Antifungal activity against Candida albicans SC5314 infected in Galleria mellonella larvae assessed as larval survival rate at 8 mg/kg measured after 10 days post inoculation relative to control; type: functional; conditions: SC5314, 240 h, time 10 day
Candida albicans [28] = test: Antifungal activity against Candida albicans SC5314 infected in Galleria mellonella larvae assessed as prolongation of survival time at 2 mg/kg measured after 10 days post inoculation; type: functional, organism-based; conditions: time 10.0 day
Candida albicans [29] = test: Antifungal activity against Candida albicans SC5314 infected in Galleria mellonella larvae assessed as increase in survival rate at 2 mg/kg measured after 10 days post inoculation; type: functional, organism-based; conditions: time 10.0 day
Saccharomyces cerevisiae [30] = test: Antifungal activity against recombinant Saccharomyces cerevisiae Y2301 overexpressing ScErg11 Y140F assessed as inhibition of fungal growth incubated for 48 hrs by microbroth dilution method; type: functional
Saccharomyces cerevisiae [31] = test: Antifungal activity against recombinant Saccharomyces cerevisiae Y2374 overexpressing CgErg11 assessed as inhibition of fungal growth incubated for 48 hrs by microbroth dilution method; type: functional
[32] = target: T1, Lanosterol 14-alpha demethylase; test: Inhibition of Lanosterol 14-alpha demethylase in Candida albicans SC5314 assessed as remaining ergosterol level at 8 ug/ml incubated for 8 hrs by GC-MS analysis (reference value: 89.76%); conditions: at 8 µg/mL

Row | Compound | MIC (Candida albicans [1]) | MIC (Nakaseomyces glabratus [2]) | MIC (Candida parapsilosis [3]) | Ratio (Nakaseomyces glabratus [4]) | MIC ([Candida] auris [5]) | Activity (Candida albicans [6]) | Activity (Candida albicans [7]) | Activity (Candida albicans [8]) | Activity (Candida albicans [9]) | Activity (Candida parapsilosis [10]) | Activity (Candida parapsilosis [11]) | Activity (Nakaseomyces glabratus [12]) | Activity (Nakaseomyces glabratus [13]) | Activity (Cryptococcus neoformans) | IC50 (Cytochrome P450 2C9) | IC50 (Cytochrome P450 2C19) | IC50 (Cytochrome P450 2D6) | microsomal CLint at 1 µM [24] | MIC (Saccharomyces cerevisiae [30]) | MIC (Saccharomyces cerevisiae [31]) | other results
1 | C[C@@H](OCC#Cc1ccc(C#N)cc1)[C@](O)(Cn1cncn1)c1ccc(F)cc1F | ≤ 0.125 mg/L | ≤ 0.125 mg/L | 1 mg/L (≈ 2.45 µM) | >=8 | 32 mg/L (≈ 78.4 µM) | Dose-Dependent Effect | Dose-Dependent Effect | Dose-Dependent Effect | Dose-Dependent Effect | Dose-Dependent Effect | Dose-Dependent Effect | Dose-Dependent Effect | Dose-Dependent Effect | Active | 0.034 µM | 0.566 µM | 27.2 µM | 25.6 µL/min/mg | 0.063 mg/L | 0.031 mg/L | Activity ([Candida] auris [14]): Dose-Dependent Effect; Activity ([Candida] auris [15]): Dose-Dependent Effect; inhibition at 16 µg/mL (Candida albicans [16]): 100%; Activity (Candida albicans [17]): Active; Activity (Candida albicans [18]): Active; inhibition (INH) [19]: ~ 100%; Activity [20]: 37.18%; Activity [21]: 13.13%; Activity [22]: 12.82%; Activity [23]: 36.87%; Activity (Candida albicans [25]): Active; MST (Candida albicans [26]): 10 days; survival at 8 mg/kg (Candida albicans [27]): 40%; Activity (Candida albicans [28]): Active; Activity (Candida albicans [29]): inactive
2 | C[C@@H](OCC#Cc1ccc(F)cc1F)[C@](O)(Cn1cncn1)c1ccc(F)cc1F | ≤ 0.125 mg/L | ≤ 0.125 mg/L | 0.5 mg/L (≈ 1.19 µM) | >=8 | 16 mg/L (≈ 38.2 µM) | Dose-Dependent Effect | Dose-Dependent Effect | Dose-Dependent Effect | Dose-Dependent Effect | Dose-Dependent Effect | Dose-Dependent Effect | Dose-Dependent Effect | Dose-Dependent Effect | Active | 0.023 µM | 0.073 µM | 23.8 µM | 26.2 µL/min/mg | 0.063 mg/L | 0.063 mg/L | Activity ([Candida] auris [14]): Dose-Dependent Effect; Activity ([Candida] auris [15]): Dose-Dependent Effect; inhibition (INH) [19]: ~ 100%
3 | C[C@@H](OCC#Cc1ccncc1)[C@](O)(Cn1cncn1)c1ccc(F)cc1F | ≤ 0.125 mg/L | ≤ 0.125 mg/L | ≤ 0.125 mg/L | >=8 | 16 mg/L (≈ 41.6 µM) | – | – | – | – | – | – | – | – | Active | 0.039 µM | 0.394 µM | 5.81 µM | 188 µL/min/mg | 0.063 mg/L | 0.063 mg/L | Activity [32]: 1.1%
